{"source": "patent US4080467A", "about": "“Pharmaceutical compositions comprising 1,3-dithiolan-2-ylidene malonate derivatives” (Nihon Nohyaku Co., Ltd., priority 1976, dated 1978)", "key": {"[1]": {"assay": "Effect on concentration of ethyl alcohol in the blood", "format": "in vivo, mice", "conditions": "250 mg/kg oral 6 h before ethyl alcohol 1,000 mg/kg", "experimental": "The test compounds are dissolved or suspended in olive oil and administered orally at the dose of 250 mg/kg to the mice. After 6 hours, 1,000 mg/kg of ethyl alcohol was given orally. Blood was taken in a capillary from caudal vein at the time indicated in the results. The plasma was obtained by centrifugation. The concentration of ethyl alcohol in the plasma was measured by FID type gas liquid chromatography. Five mice were used for each group."}, "[2]": {"system": "cirrhosis (carbon tetrachloride)", "assay": "Therapeutic effect on cirrhosis (carbon tetrachloride)", "format": "in vivo, male rat (4 week-old SD-strain)", "conditions": "for Degree of cirrhosis (histopathological examination): 2000 ppm diet, one symbol per animal; for p-GOT activity / p-GPT activity: diet containing 2000 ppm", "experimental": "The therapeutic effect of the compound of this invention on cirrhosis, which had been caused by carbon tetrachloride administration, was examined.\nA 10% solution of carbon tetrachloride in olive oil was administered to the male rat (4 week-old SD-strain) intraperitoneally at the dose of 0.5 ml carbon tetrachloride/kg twice a week for a period of 10 weeks, to induce cirrhosis. Four days after the final administration of carbon tetrachloride, the formation of pseudo-lobulus was confirmed. Then the diseased animals were divided into two groups. Therapeutic group was submitted a diet containing 2000 ppm of Compound 4, while the positive control group was submitted a normal diet. Control group, to which olive oil alone had been administered, was submitted a normal diet.\nAt 1, 2, 4 and 8 weeks after beginning of Compound 4 feeding, 5 animals from each group were sacrificed, and the therapeutic effect on cirrhosis was evaluated by examining plasma transaminase activity (p-GPT and p-GOT, Reitman-Frankel method) and observing histopathological changes.\nDegree of cirrhosis in the histopathological examination was graded as follows: […]"}, "[3]": {"system": "bile flow and biliary salt", "assay": "Cholagogic action: bile flow and excretion of biliary salt", "format": "in vivo, male rat (4 week-aged, SD-JCL strain)", "conditions": "200 mg/kg oral; for bile flow / excretion of biliary salt: before treatment = 100"}, "[4]": {"assay": "Effect on glucose metabolism (blood sugar after glucose load)", "format": "in vivo, mice", "conditions": "for Blood Sugar: 250 mg/kg oral 6 h before glucose 4.0 g/kg", "experimental": "The test compounds dissolved in olive oil and administered orally at the dose of 250 mg/kg to the mice. After 6 hours, 4.0 g/kg of glucose was orally administered. The same amount of glucose was given to the control animals. 0.02 ml of blood was taken from caudal vein of the mice at 30, 60, 90 and 120 min. after glucose administration. Blood sugar was measured by the procedure of Somogyi-Nelson. Number of animals used was 5 to 6 mice for each treatment."}, "[5]": {"system": "acute liver damage associated with periportal necrosis (allyl alcohol)", "assay": "Protective effect on acute liver damage associated with periportal necrosis (allyl alcohol model), BSP test", "format": "in vivo, male mouse (4 week-old dd-strain)", "conditions": "100 mg/kg oral 6 h before allyl alcohol 0.075 ml/kg; 24 h after", "experimental": "The compound of this invention or anethol trithion was orally administered to the male mouse (4 week-old dd-strain) at the dose of 100 mg/kg. Six hours after it, allyl alcohol was orally administered at the dose of 0.075 ml/kg. Twenty four hours after it, the animals were sacrificed to collect blood samples. The residual quantity of BSP was measured by BSP test, from which the protective effect of the compound of this invention was evaluated."}}}
{"smiles": "CC(C)OC(=O)C(C(=O)OC(C)C)=C1SCCS1", "note": "[Compound 4, Diisopropyl 1,3-dithiolan-2-yliden malonate]", "values": [{"measurement": "Concentration of Ethyl alcohol in Plasma", "setting": "[1]; 0 min", "result": "9±4", "unit": "ppm"}, {"measurement": "Concentration of Ethyl alcohol in Plasma", "setting": "[1]; 5 min", "result": "727±84", "unit": "ppm"}, {"measurement": "Concentration of Ethyl alcohol in Plasma", "setting": "[1]; 15 min", "result": "715±146", "unit": "ppm"}, {"measurement": "Concentration of Ethyl alcohol in Plasma", "setting": "[1]; 30 min", "result": "430±105", "unit": "ppm"}, {"measurement": "Concentration of Ethyl alcohol in Plasma", "setting": "[1]; 60 min", "result": "13±11", "unit": "ppm"}, {"measurement": "Degree of cirrhosis (histopathological examination)", "setting": "[2]; 1 week", "result": "+ +++ + ++ +++"}, {"measurement": "Degree of cirrhosis (histopathological examination)", "setting": "[2]; 2 weeks", "result": "++ ±"}, {"measurement": "Degree of cirrhosis (histopathological examination)", "setting": "[2]; 8 weeks", "result": "+ ± and +++ ±"}, {"measurement": "p-GOT activity", "setting": "[2]; 1 week", "result": "277±135", "unit": "Karmen unit"}, {"measurement": "p-GPT activity", "setting": "[2]; 1 week", "result": "81.6±25.9", "unit": "Karmen unit"}, {"measurement": "p-GOT activity", "setting": "[2]; 2 weeks", "result": "96.8±2.6", "unit": "Karmen unit"}, {"measurement": "p-GPT activity", "setting": "[2]; 2 weeks", "result": "28.8±3.0", "unit": "Karmen unit"}, {"measurement": "p-GOT activity", "setting": "[2]; 4 weeks", "result": "64.0±5.5", "unit": "Karmen unit"}, {"measurement": "p-GPT activity", "setting": "[2]; 4 weeks", "result": "40.6±3.8", "unit": "Karmen unit"}, {"measurement": "p-GOT activity", "setting": "[2]; 8 weeks", "result": "91.8±7.2", "unit": "Karmen unit"}, {"measurement": "p-GPT activity", "setting": "[2]; 8 weeks", "result": "32.8±6.1", "unit": "Karmen unit"}, {"measurement": "bile flow", "setting": "[3]; 1 hour after treatment", "result": "110±4.2"}, {"measurement": "excretion of biliary salt", "setting": "[3]; 1 hour after treatment", "result": "105±13"}, {"measurement": "bile flow", "setting": "[3]; 2 hours after treatment", "result": "115±6.3"}, {"measurement": "excretion of biliary salt", "setting": "[3]; 2 hours after treatment", "result": "125±20"}, {"measurement": "bile flow", "setting": "[3]; 3 hours after treatment", "result": "110±7.2"}, {"measurement": "excretion of biliary salt", "setting": "[3]; 3 hours after treatment", "result": "132±26"}, {"measurement": "bile flow", "setting": "[3]; 4 hours after treatment", "result": "112±8.5"}, {"measurement": "excretion of biliary salt", "setting": "[3]; 4 hours after treatment", "result": "115±23"}, {"measurement": "bile flow", "setting": "[3]; 5 hours after treatment", "result": "92±4.7"}, {"measurement": "excretion of biliary salt", "setting": "[3]; 5 hours after treatment", "result": "81±7.2"}, {"measurement": "Amount of total biliary salts excreted for 5 hours relative to control", "setting": "[3]; versus control", "result": 1.61, "unit": "times"}, {"measurement": "Quantity of total excreted bile for 5 hours relative to control", "setting": "[3]; versus control", "result": 1.15, "unit": "times"}, {"measurement": "Blood Sugar (percent of 0 min value)", "setting": "[4]; 0 min", "result": 100, "unit": "%"}, {"measurement": "Blood Sugar", "setting": "[4]; 0 min", "result": "134 ± 24.8", "unit": "mg/dL"}, {"measurement": "Blood Sugar", "setting": "[4]; 30 min", "result": "258 ± 22.2", "unit": "mg/dL"}, {"measurement": "Blood Sugar", "setting": "[4]; 60 min", "result": "232 ± 13.0", "unit": "mg/dL"}, {"measurement": "Blood Sugar", "setting": "[4]; 90 min", "result": "190 ± 23.6", "unit": "mg/dL"}, {"measurement": "Blood Sugar", "setting": "[4]; 120 min", "result": "152 ± 23.4", "unit": "mg/dL"}, {"measurement": "Blood Sugar (percent of 0 min value)", "setting": "[4]; 30 min", "result": 192, "unit": "%"}, {"measurement": "Blood Sugar (percent of 0 min value)", "setting": "[4]; 60 min", "result": 173, "unit": "%"}, {"measurement": "Blood Sugar (percent of 0 min value)", "setting": "[4]; 90 min", "result": 142, "unit": "%"}, {"measurement": "Blood Sugar (percent of 0 min value)", "setting": "[4]; 120 min", "result": 113, "unit": "%"}, {"measurement": "Index of hepatotoxicity: BSP (residual quantity of BSP)", "setting": "[5]", "result": "16±2.3"}]}
